From article doi:10.1101/2021.10.07.463234v2 (biorxiv, 2021) come the findings set out here.

For this experiment, the target named is SARS-CoV-2 Mac1 (Severe acute respiratory syndrome coronavirus 2, UniProt P0DTD1). Put plainly: biochemical. Conditions: for inhibition at 100 µM: read-out: %inhibition; for %inhibition: 100 µM, inhibitor.

Where a name gives a salt, the structure may show the parent alone. Numbered stars: 1 amine (or outer) side, 2 acyl side, 3 side chain; on linkers, the order of the positions; unused ones are H or OH. Bridge positions count the residues as written; N and C are the ends. Square brackets hold non-standard residues; d marks the D form. Peptide text beside a SMILES is read from it. * marks the point of attachment. pTerphenylCO(4''-OnC5H11) = CCCCCOc1ccc(-c2ccc(-c3ccc(C(=O)*)cc3)cc2)cc1; Orn(4R-OH,5R-OH) = O=C([C@H](C[C@@H](O)[C@@H](O)N[*:3])N[*:1])[*:2]; hTyr(3S-OH,4S-OH) = N[C@H](C(=O)O)[C@H](O)[C@@H](O)c1ccc(O)cc1; Pro(3S-OH,4S-Me) = C[C@H]1CN[C@H](C(=O)O)[C@H]1O; Hyp = O=C(O)[C@@H]1C[C@@H](O)CN1

With `CCNC(=O)[C@@H]1CCCN1C(=O)[C@H](CCCN=C(N)N)NC(=O)[C@H](CC(C)C)NC(=O)[C@@H](C)NC(=O)[C@H](Cc1ccc(O)cc1)NC(=O)[C@H](CO)NC(=O)[C@H](Cc1c[nH]c2ccccc12)NC(=O)[C@H](Cc1cnc[nH]1)NC(=O)[C@@H]1CCC(=O)N1` [Alarelin Acetate], the inhibition at 100 µM is 0.14%. As to `CCC[S+]([O-])c1ccc2[nH]c(NC(=O)OC)nc2c1` (centres unmarked) [Albendazole Oxide], the inhibition at 100 µM amounted to 28%.

On to `CCCSc1ccc2[nH]c(NC(=O)OC)nc2c1` [Albendazole], for which the inhibition at 100 µM came to 0%.

On to `CN1CCC(=C2c3ccccc3CCn3c(C=O)cnc32)CC1` [Alcaftadine], for which the inhibition at 100 µM came to 0%. In the case of `CCc1cc2c(cc1N1CCC(N3CCOCC3)CC1)C(C)(C)c1[nH]c3cc(C#N)ccc3c1C2=O` [Alectinib hydrochloride], the inhibition at 100 µM turned out to be 9.69%. Still for that read-out and setting: with `NCCCC(O)(P(=O)(O)O)P(=O)(O)O` [Alendronate sodium trihydrate] the figure was 1.69%; with `C=C1/C(=C\C=C2/CCC[C@]3(C)[C@@H]([C@H](C)CCCC(C)C)CC[C@@H]23)C[C@@H](O)C[C@@H]1O` [Alfacalcidol], 0%; with `COc1cc2nc(N(C)CCCNC(=O)C3CCCO3)nc(N)c2cc1OC` (centres unmarked) [Alfuzosin HCl], 0%. The same measure, in the same setting: as for `C=CCc1cc(OC)c(O)c(C(=O)NCCO)c1` [Alibendol], the figure is 15.2%; as for `CC(CN(C)C)CN1c2ccccc2Sc2ccccc21` (centres unmarked) [Alimemazine Tartrate], 12.1%; as for `COc1cc(Nc2ncc3c(n2)-c2ccc(Cl)cc2C(c2c(F)cccc2OC)=NC3)ccc1C(=O)O` [Alisertib (MLN8237)], 8.76%. Still for that read-out and setting: with `COCCCOc1cc(C[C@@H](C[C@H](N)[C@@H](O)C[C@H](C(=O)NCC(C)(C)C(N)=O)C(C)C)C(C)C)ccc1OC` [Aliskiren Hemifumarate] the figure was 0%; with `C=CCN1CCCC1CNC(=O)c1cc2nn[nH]c2cc1OC` (centres unmarked) [Alizapride HCl], 0%. `C=CCNC(N)=S` [Allylthiourea]: the inhibition at 100 µM worked out at 7.98%.

On to `CN(C)CCc1c[nH]c2ccc(CS(=O)(=O)N3CCCC3)cc12` [Almotriptan Malate], for which the inhibition at 100 µM was 9.31%. Consider `Cn1c(=O)cc(N2CCC[C@@H](N)C2)n(Cc2ccccc2C#N)c1=O` [Alogliptin], for which the inhibition at 100 µM is 12.8%. On the same count and under the same terms, with `Cc1[nH]cnc1CN1CCc2c(c3ccccc3n2C)C1=O` [Alosetron Hydrochloride] the figure was 16.8%; with `CCOC(=O)[C@H]1O[C@@H]1C(=O)N[C@@H](CC(C)C)C(=O)NCCC(C)C` [Aloxistatin], 0%; with `CCCCC[C@H](O)/C=C/[C@H]1[C@H](O)CC(=O)[C@@H]1CCCCCCC(=O)O` [Alprostadil], 0%.

Take `C=CC[C@]1(O)CC[C@H]2[C@@H]3CCC4=CC(=O)CCC4=C3C=C[C@@]21C` [Altrenogest]: the inhibition at 100 µM worked out at 0%. `CN(C)c1nc(N(C)C)nc(N(C)C)n1` [Altretamine]: the inhibition at 100 µM was 19.5%. Same read-out and setting: as for `Cc1c(-c2ccnn2C)cc(C(=O)NCc2ccc(S(C)(=O)=O)cn2)c(=O)n1-c1cccc(C(F)(F)F)c1` [Alvelestat (AZD9668)], the figure is 0%.

Take `CCN(CCCc1ccccc1)CCCc1ccccc1` [Alverine Citrate]: the inhibition at 100 µM came to 8.25%.

Turning to `C[C@H]1CN(C[C@H](Cc2ccccc2)C(=O)NCC(=O)O)CC[C@@]1(C)c1cccc(O)c1` [Alvimopan dihydrate], the inhibition at 100 µM was 12.8%. Turning to `NC12CC3CC(CC(C3)C1)C2` [Amantadine HCl], the inhibition at 100 µM is 0%. Still for that read-out and setting: as for `COC(c1ccccc1)(c1ccccc1)[C@H](Oc1nc(C)cc(C)n1)C(=O)O` [Ambrisentan], the figure is 0%. Regarding `Nc1c(Br)cc(Br)cc1CN[C@H]1CC[C@H](O)CC1` [Ambroxol HCl], the “%inhibition” value came to 9.799%.

Take `Nc1c(Br)cc(Br)cc1CN[C@H]1CC[C@H](O)CC1` [Ambroxol]: the “%inhibition” value was found to be 0%. Turning to `Cc1cccc(C)c1N(CC(=O)Nc1ccc(-c2ncon2)cc1)C(=O)C1CCS(=O)(=O)CC1` [Amenamevir], the inhibition at 100 µM came to 8.46%. With `Nc1c(CC(=O)O)cccc1C(=O)c1ccccc1` [Amfenac Sodium Monohydrate], the inhibition at 100 µM turned out to be 4.46%.

On to `NCCCNCCSP(=O)(O)O` [Amifostine], for which the inhibition at 100 µM stood at 0%. Same read-out and setting: as for `NCC[C@H](O)C(=O)N[C@@H]1C[C@H](N)[C@@H](O[C@H]2O[C@H](CN)[C@@H](O)[C@H](O)[C@H]2O)[C@H](O)[C@H]1O[C@H]1O[C@H](CO)[C@@H](O)[C@H](N)[C@H]1O` [Amikacin disulfate], the figure is 0%. In the case of `N=C(N)NC(=O)c1nc(Cl)c(N)nc1N` [Amiloride HCl dihydrate], the “%inhibition” value came to 4.635%.

Take `N=C(N)NC(=O)c1nc(Cl)c(N)nc1N` [Amiloride HCl]: the “%inhibition” value is on record as 0%. As to `CCC1(c2ccc(N)cc2)CCC(=O)NC1=O` (centres unmarked) [Aminoglutethimide], the inhibition at 100 µM came to 17.3%. Same read-out and setting: as for `N=C(N)NN` [Aminoguanidine hydrochloride], the figure is 4.16%; as for `Cn1c(=O)c2[nH]cnc2n(C)c1=O` [Aminophylline], 5.61%.

Take `Nc1nccs1` [Aminothiazole]: the inhibition at 100 µM is 1.18%. Still for that read-out and setting: as for `CCN1CCCC1CNC(=O)c1cc(S(=O)(=O)CC)c(N)cc1OC` (centres unmarked) [Amisulpride], the figure is 7.08%; as for `CN(C)CCC=C1c2ccccc2CCc2ccccc21` [Amitriptyline HCl], 0%.

Regarding `CCOC(=O)C1=C(COCCN)NC(C)=C(C(=O)OC)C1c1ccccc1Cl` (centres unmarked) [Amlodipine Besylate], the “%inhibition” value is recorded as 25.29%.

In the case of `CCOC(=O)C1=C(COCCN)NC(C)=C(C(=O)OC)C1c1ccccc1Cl` (centres unmarked) [Amlodipine], the inhibition at 100 µM stood at 25.5%. Take `CC1(C)[C@@H](O[C@H]2O[C@H](C(=O)O)[C@@H](O)[C@H](O)[C@H]2O[C@@H]2O[C@H](C(=O)O)[C@@H](O)[C@H](O)[C@H]2O)CC[C@]2(C)[C@H]3C(=O)C=C4[C@@H]5C[C@@](C)(C(=O)O)CC[C@]5(C)CC[C@@]4(C)[C@]3(C)CC[C@@H]12` [Ammonium Glycyrrhizinate]: the inhibition at 100 µM was determined as 0%. Still for that read-out and setting: as for `CC(O)C(=O)O` (centres unmarked) [Ammonium lactate], the figure is 16.4%. Consider `CCN(CC)Cc1cc(Nc2ccnc3cc(Cl)ccc23)ccc1O` [Amodiaquine dihydrochloride dihydrate], for which the “%inhibition” value is 0%. Same read-out and setting: with `CCN(CC)Cc1cc(Nc2ccnc3cc(Cl)ccc23)ccc1O` [Amodiaquine hydrochloride] the figure was 7.946%. Regarding `CN(C)CCN1C(=O)c2cccc3cc(N)cc(c23)C1=O` [Amonafide], the inhibition at 100 µM turned out to be 16.3%. Same read-out and setting: with `CCC(C)(C)c1ccc(CC(C)CN2C[C@@H](C)O[C@@H](C)C2)cc1` (some centres unmarked) [Amorolfine HCl] the figure was 6.98%.

As to `CC1(C)S[C@@H]2[C@H](NC(=O)[C@H](N)c3ccc(O)cc3)C(=O)N2[C@H]1C(=O)O` [Amoxicillin Sodium], the “%inhibition” value was determined as 14.1%.

For the molecule `CC1(C)S[C@@H]2[C@H](NC(=O)[C@H](N)c3ccc(O)cc3)C(=O)N2[C@H]1C(=O)O` [Amoxicillin trihydrate], the “%inhibition” value is recorded as 5.69%. Turning to `CC1(C)S[C@@H]2[C@H](NC(=O)[C@H](N)c3ccc(O)cc3)C(=O)N2[C@H]1C(=O)O` [Amoxicillin], the “%inhibition” value turned out to be 9.546%. For `C[C@@H]1[C@H](O)[C@@H](C)/C=C/C=C/C=C/C=C/C=C/C=C/C=C/[C@H](O[C@@H]2O[C@H](C)[C@@H](O)[C@H](N)[C@@H]2O)C[C@@H]2O[C@](O)(C[C@@H](O)C[C@@H](O)[C@H](O)CC[C@@H](O)C[C@@H](O)CC(=O)O[C@H]1C)C[C@H](O)[C@H]2C(=O)O` [Amphotericin B], the inhibition at 100 µM is 2.16%.

With `CC1(C)S[C@@H]2[C@H](NC(=O)[C@H](N)c3ccccc3)C(=O)N2[C@H]1C(=O)O` [Ampicillin Trihydrate], the “%inhibition” value stood at 20.11%. As to `CC1(C)S[C@@H]2[C@H](NC(=O)[C@H](N)c3ccccc3)C(=O)N2[C@H]1C(=O)O` [Ampicillin sodium], the “%inhibition” value was 0%. Consider `CCOC(=O)OC(C)OC1=C(C(=O)Nc2ccccn2)N(C)S(=O)(=O)c2ccccc21` (centres unmarked) [Ampiroxicam], for which the inhibition at 100 µM came to 5.86%. For `CC(C)CN(C[C@@H](O)[C@H](Cc1ccccc1)NC(=O)O[C@H]1CCOC1)S(=O)(=O)c1ccc(N)cc1` [Amprenavir], the inhibition at 100 µM was determined as 0%. Same read-out and setting: as for `CCCc1ncc(C[n+]2ccccc2C)c(N)n1` [Amprolium HCl], the figure is 0%.

For the molecule `COc1cc(NS(C)(=O)=O)ccc1Nc1c2ccccc2nc2ccccc12` [Amsacrine hydrochloride], the inhibition at 100 µM is 27%. On the same count and under the same terms, as for `S=C(NCc1ccc2c(c1)OCO2)N1CCN(c2ncnc3c2oc2ccccc23)CC1` [Amuvatinib (MP-470)], the figure is 24.8%; as for `O=C1CN2Cc3c(ccc(Cl)c3Cl)N=C2N1` [Anagrelide HCl], 0%; as for `CN(C)N(C)C(=O)[C@@]1(Cc2ccccc2)CCCN(C(=O)[C@@H](Cc2c[nH]c3ccccc23)NC(=O)C(C)(C)N)C1` [Anamorelin], 1.6%.

Take `CC(C)(C#N)c1cc(Cn2cncn2)cc(C(C)(C)C#N)c1` [Anastrozole]: the inhibition at 100 µM was 10.3%. Regarding `CCCCCOc1ccc(-c2ccc(-c3ccc(C(=O)N[C@H]4C[C@@H](O)[C@@H](O)NC(=O)[C@@H]5[C@@H](O)[C@@H](C)CN5C(=O)[C@H]([C@@H](C)O)NC(=O)[C@H]([C@H](O)[C@@H](O)c5ccc(O)cc5)NC(=O)[C@@H]5C[C@@H](O)CN5C(=O)[C@H]([C@@H](C)O)NC4=O)cc3)cc2)cc1` [Anidulafungin (LY303366)] ({pTerphenylCO(4''-OnC5H11)}-[Orn(4R-OH,5R-OH)]T[Hyp][hTyr(3S-OH,4S-OH)]T[Pro(3S-OH,4S-Me)]; lactam 1-C), the inhibition at 100 µM was determined as 6.34%. Still for that read-out and setting: with `COc1ccc(C(=O)N2CCCC2=O)cc1` [Aniracetam] the figure was 0%. On the same count and under the same terms, as for `COc1ccc(C2C(=O)c3ccccc3C2=O)cc1` [Anisindione], the figure is 2.26%.
